The test system of this test is A. fumigatus Tsukuba strain. The test can be described thus: Experimental respiratory aspergillus infection model in mice. The format is in vivo, female DBA/2N mice. The following applies: 5-fluorouracil-treated mice, A. fumigatus nasal infection, 20 or 40 mg/kg peroral 3 times per day for 3 days, observed until 14 days after infection. The protocol:
In order to increase susceptibility of the mice to infection, 200 mg/kg of 5-fluorouracil was administered subcutaneously 6 days prior to infection.
A. fumigatus Tsukuba strain was used.
A spore suspension of the infection strain was used to coat a potato dextrose agar medium (PDA), a standing culture was carried out for 4 to 7 days at 35° C., spore was then suspended in a sterilized physiological saline containing 0.05% Tween 80. By counting the pore count on a cytometry plate, the suspension was diluted to 6×10^5 cells/ml with sterilized physiological saline containing 0.05% Tween 80 to serve as fungal inoculum.
Under ketalar anesthesia, 50 μl of fungal inoculum was used to inoculate 8 to 9 week-old female DBA/2N mice in the nose (3×10^4 cells/mouse).
From 1 hour after fungal inoculation, 0.2 ml of agent solution (dissolved or suspended in sterilized physiological saline containing 6.5% DMSO and 3.5% Tween 80), was administered into the stomach using a peroral probe 3 times per day for 3 days. The agent dosage was from 20 or 40 mg/kg, and the number of animals in one group was 5 animals.
The protective effect was determined by observing life/death until 14 days after infection and calculating the mean survival days.

The structures appear in SMILES notation.

As to `O=C(NCc1ccc(Oc2ccc(F)cc2)s1)c1ccc2ncccc2n1` [Example D-7, [1,5]Naphthylidine-2-carboxylic acid (5-(4-fluoro-phenoxy)-thiophen-2-ylmethyl)-amide], the “Mean Survival Days” value amounted to 10.6 days.

The values are drawn from US7932272B2, “Antifungal agent containing heterocyclic compound” (Eisai R&D Management Co., Ltd., priority 2003, dated 2011).
